From ChEMBL document CHEMBL1128098, “Synthesis and serotonin receptor binding properties of 5-substituted 3-(1,2,5,6-tetrahydropyridin-3-yl) indoles” (Bioorg Med Chem Lett, 1995)
pKi: −log10 of the molar value.

What was measured:
[1] = biological target: T1, 5-hydroxytryptamine receptor 1A (Rattus norvegicus, UniProt P19327); experiment: Binding affinity to 5-hydroxytryptamine 1A receptor using [3H]8-OH-DPAT radioligand assay.
T1 sequence (P19327 whole entry): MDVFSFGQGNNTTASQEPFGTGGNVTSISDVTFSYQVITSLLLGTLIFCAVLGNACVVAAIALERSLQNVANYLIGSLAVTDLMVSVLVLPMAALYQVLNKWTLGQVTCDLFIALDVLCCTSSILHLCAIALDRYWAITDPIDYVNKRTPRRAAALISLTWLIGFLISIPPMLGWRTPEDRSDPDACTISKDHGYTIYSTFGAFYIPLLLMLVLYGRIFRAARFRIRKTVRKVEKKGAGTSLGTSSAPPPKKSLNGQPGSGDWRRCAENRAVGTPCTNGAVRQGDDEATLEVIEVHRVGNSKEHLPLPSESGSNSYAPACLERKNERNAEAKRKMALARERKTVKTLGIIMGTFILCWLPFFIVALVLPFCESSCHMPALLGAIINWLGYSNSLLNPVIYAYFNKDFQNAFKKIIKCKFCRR

[2] = biological target: Serotonin 2 (5-HT2) receptor (Rattus norvegicus, UniProt P30994+P08909+P14842); experiment: Binding affinity to 5-hydroxytryptamine 2 receptor using [3H]ketanserin radioligand assay.; type: protein assay

Structure (SMILES) | pKi [1] | Ki [2]
CCCN1CCC=C(c2c[nH]c3ccc(C(=O)OC)cc23)C1 | 6.67 | > 50000 nM
CCCN1CCC=C(c2c[nH]c3ccc(C#N)cc23)C1 | 6.52 | 958 nM
CCCN1CCC=C(c2c[nH]c3ccccc23)C1 | 6.25 | 146 nM
COc1ccc2[nH]cc(C3=CCCN(C)C3)c2c1 | 7.10 | 716 nM
CCCN1CCC=C(c2c[nH]c3ccc(Br)cc23)C1 | 6.72 | 139 nM
COC(=O)c1ccc2[nH]cc(C3=CCCN(C)C3)c2c1 | 6.99 | 5360 nM
CC(=O)Nc1ccc2[nH]cc(C3=CCCN(C)C3)c2c1 | 7.80 | 14536 nM
CN1CCC=C(c2c[nH]c3ccc(Br)cc23)C1 | 7.30 | 82 nM
CN1CCC=C(c2c[nH]c3ccc(C(N)=O)cc23)C1 | 8.42 | > 10000 nM
CCN1CCC=C(c2c[nH]c3ccc(Cl)cc23)C1 | 7.33 | 150 nM
Cc1ccc2[nH]cc(C3=CCCN(C)C3)c2c1 | 7.14 | 194 nM
CN1CCC=C(c2c[nH]c3ccc(O)cc23)C1 | 6.84 | 237 nM
CC(=O)c1ccc2[nH]cc(C3=CCCN(C)C3)c2c1 | 7.04 | 3383 nM
COc1ccc2[nH]cc(C3=CCCNC3)c2c1 | 8.24 | 230 nM
CN1CCC=C(c2c[nH]c3ccc(C#N)cc23)C1 | 6.89 | 1035 nM
CCN1CCC=C(c2c[nH]c3ccc(C#N)cc23)C1 | 6.73 | 1360 nM
CCCN1CCC=C(c2c[nH]c3ccc(OC)cc23)C1 | 6.65 | 1070 nM
CN1CCC=C(c2c[nH]c3ccc(F)cc23)C1 | 6.91 | 43 nM
CN1CCC=C(c2c[nH]c3ccc(Cl)cc23)C1 | 6.95 | 107 nM
CCN1CCC=C(c2c[nH]c3ccc(F)cc23)C1 | 6.85 | 67 nM
CCCN1CCC=C(c2c[nH]c3ccc(NC(C)=O)cc23)C1 | 6.69 | > 50000 nM
CCCN1CCC=C(c2c[nH]c3ccc(C(N)=O)cc23)C1 | 8.33 | 19152 nM
CN1CC[C@@H]2CCc3[nH]c4ccccc4c3[C@H]2C1 | 5.63 | 325 nM
CCN1CCC=C(c2c[nH]c3ccc(Br)cc23)C1 | 7.62 | 125 nM
CCN1CCC=C(c2c[nH]c3ccc(C)cc23)C1 | 7.38 | 246 nM
CN1CCC=C(c2c[nH]c3ccccc23)C1 | 6.58 | 139 nM
CCN1CCC=C(c2c[nH]c3ccc(OC)cc23)C1 | 7.15 | 1130 nM
CCN1CCC=C(c2c[nH]c3ccccc23)C1 | 6.67 | 165 nM
